Where two headings read alike, the source gives them in different places. Where a SMILES comes first, the peptide text is derived from it.
What was measured:
human GLP-1 receptor = target: T1, human GLP-1 receptor (Homo sapiens, UniProt P43220); experiment: GLP-1 receptor potency assay (cAMP ALPHASCREEN, HEK293 cells stably expressing GLP-1 R); assay type: cell-based; conditions: cAMP response, HEK293 cells expressing human GLP-1 R
T1 construct: expressed in transfected cells
Outline: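 Clonal HEK293 line stably transfected with human GLP-1R (G418-selected) was treated with test compounds and the cAMP response quantified by ALPHASCREEN. Signals were normalized to positive control and vehicle, with EC50 and maximal response taken from concentration-response curves.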

[1] = Chemical stability (RP-HPLC normalized purity after incubation at 40° C.); assay type: physicochemical; conditions: 14-day incubation, 0.2 mg/ml, normalized purity (area-%); for pH 6 normalized stability: pH 6, 40° C.; for pH 7 normalized stability: pH 7, 40° C.
Outline: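 Peptide at 0.2 mg/ml final in water adjusted to pH 6, 7, 7.5 or 9, incubated at 40° C for 14 days. Purity measured as main-peak area-% by C18 RP-HPLC (acetonitrile/TFA/water gradient, UV 220 nm) and normalized to T=0 set at 100 for each pH.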

human GLP-2 receptor = target: T2, human GLP-2 receptor (Homo sapiens, UniProt O95838, D470N); experiment: GLP-2 receptor potency assay (cAMP ALPHASCREEN, HEK293 cells stably expressing GLP-2 R); assay type: cell-based; conditions: cAMP response, HEK293 cells expressing human GLP-2 R; read-out: EC50 GLP-2
T2 construct: expressed in transfected cells
T2 sequence (O95838 1-553 D470N): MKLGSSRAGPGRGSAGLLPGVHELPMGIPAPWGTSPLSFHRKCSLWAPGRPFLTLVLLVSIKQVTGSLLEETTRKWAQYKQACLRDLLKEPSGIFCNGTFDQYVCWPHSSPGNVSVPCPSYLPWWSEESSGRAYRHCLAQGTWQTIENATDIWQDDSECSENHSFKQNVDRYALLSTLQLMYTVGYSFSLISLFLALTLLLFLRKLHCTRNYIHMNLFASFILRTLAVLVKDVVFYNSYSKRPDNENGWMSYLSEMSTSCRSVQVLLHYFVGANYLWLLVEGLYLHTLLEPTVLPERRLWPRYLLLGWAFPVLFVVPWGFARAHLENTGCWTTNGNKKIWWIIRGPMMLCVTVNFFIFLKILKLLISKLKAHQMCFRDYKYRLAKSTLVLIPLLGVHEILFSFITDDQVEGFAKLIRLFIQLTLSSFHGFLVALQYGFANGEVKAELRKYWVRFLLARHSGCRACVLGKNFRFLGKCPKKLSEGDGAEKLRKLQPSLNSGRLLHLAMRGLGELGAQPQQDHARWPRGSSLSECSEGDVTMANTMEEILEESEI
Outline: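 HEK293 clones stably transfected with the human GLP-2 receptor, selected with G418, were used. Intracellular cAMP was quantified by AlphaScreen. Responses were normalised to positive and vehicle controls, and EC50 and maximal response were taken from concentration-response curves.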

[2] = tested on: Normal chow-fed C57BL/6J male mice; experiment: Effect on fasting glucose and intestinal weight in normal mice; assay type: in vivo
Experimental: Normal chow-fed C57BL/6J male mice were used. The mice were kept in standard housing conditions, light-, temperature-, and humidity-controlled room (12:12 h light-dark cycle, with lights on at 06.00-18.00 h; 20-22° C.; 50-80% relative humidity). Each dosing group consisted of 6 animals. Mice were dosed once daily with 100 nmol/kg with the test compounds or vehicle for 4 days via subcutaneous administration.
On day 0 mice were fasted and blood glucose levels measured after a single s.c. injection with peptides. Animals were sacrificed 24 hours after final dosing on day 3, and small intestinal wet weights were measured.

[3] = Solubility assessment (turbidity absorbance at 325 nm); assay type: physicochemical
Outline: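 Peptide stock at 2 mg/ml in water at pH 2.5 diluted 1:1 into 100 mM acetate (pH 4.0, 5.0), histidine (pH 6.0, 7.0) or phosphate (pH 6.0, 7.0, 7.5) buffer. Absorbance at 280 and 325 nm read at ambient temperature (typically 25 °C), single samples (n=1).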

T1 sequence (P43220 24-463): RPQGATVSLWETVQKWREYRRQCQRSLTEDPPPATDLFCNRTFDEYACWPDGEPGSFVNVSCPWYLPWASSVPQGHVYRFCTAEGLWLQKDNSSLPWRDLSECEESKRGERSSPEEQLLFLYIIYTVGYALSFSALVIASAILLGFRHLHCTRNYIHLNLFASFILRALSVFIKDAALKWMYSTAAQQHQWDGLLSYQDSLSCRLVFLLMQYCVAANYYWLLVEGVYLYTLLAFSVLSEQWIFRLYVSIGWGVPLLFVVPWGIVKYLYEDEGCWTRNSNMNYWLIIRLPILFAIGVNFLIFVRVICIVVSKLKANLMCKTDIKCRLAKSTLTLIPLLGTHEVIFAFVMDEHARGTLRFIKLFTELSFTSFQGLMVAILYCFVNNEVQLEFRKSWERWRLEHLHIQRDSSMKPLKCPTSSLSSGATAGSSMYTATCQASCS

SMILES	EC50 (human GLP-1 receptor)	pH 6 normalized stability [1]	pH 7 normalized stability [1]	EC50 (human GLP-2 receptor)	Small intestinal wet weight ([2]; 100 nmol/kg s.c. once daily for 4 days, sacrificed 24 hours after final dosing)	Fasting blood glucose ([2]; 100 nmol/kg s.c., day 0 after a single injection, fasted mice)	solubility ([3]; 100 mM acetate buffer pH 4.0, ambient temperature, read-out: Solubility Acetate buffer pH 4)	solubility ([3]; 100 mM acetate buffer pH 5.0, ambient temperature, read-out: Solubility Acetate buffer pH 5)	solubility ([3]; 100 mM histidine buffer pH 6.0, ambient temperature, read-out: Solubility Histidine buffer pH 6)	solubility ([3]; 100 mM histidine buffer pH 7.0, ambient temperature, read-out: Solubility Histidine buffer pH 7)	solubility ([3]; 100 mM phosphate buffer pH 6.0, ambient temperature, read-out: Solubility Phosphate buffer pH 6)	solubility ([3]; 100 mM phosphate buffer pH 7.0, ambient temperature, read-out: Solubility Phosphate buffer pH 7)	solubility ([3]; 100 mM phosphate buffer pH 7.5, ambient temperature, read-out: Solubility Phosphate buffer pH 7.5)
CC[C@H](C)[C@H](NC(=O)[C@H](Cc1ccccc1)NC(=O)[C@H](CC(=O)O)NC(=O)[C@H](CCCNC(=N)N)NC(=O)[C@H](C)NC(=O)[C@H](C)NC(=O)[C@H](CCC(N)=O)NC(=O)[C@H](CCCCNC(=O)CC[C@H](NC(=O)CCCCCCCCCCCCCCCCC(=O)O)C(=O)O)NC(=O)[C@H](CC(=O)O)NC(=O)[C@H](CC(C)C)NC(=O)[C@@H](NC(=O)[C@@H](NC(=O)[C@H](C)NC(=O)[C@H](CC(C)C)NC(=O)[C@H](CCC(=O)O)NC(=O)[C@H](CO)NC(=O)[C@H](CO)NC(=O)[C@H](Cc1ccccc1)NC(=O)[C@H](CO)NC(=O)CNC(=O)[C@H](CC(=O)O)NC(=O)C(C)(C)NC(=O)[C@@H](N)Cc1c[nH]cn1)[C@@H](C)O)[C@@H](C)CC)C(=O)N[C@@H](C)C(=O)N[C@@H](Cc1c[nH]c2ccccc12)C(=O)N[C@@H](CC(C)C)C(=O)N[C@H](C(=O)N[C@@H](CCC(N)=O)C(=O)N[C@@H](Cc1c[nH]cn1)C(=O)N[C@@H](CCCCN)C(=O)N[C@H](C(=O)N[C@H](C(=O)N[C@@H](CC(=O)O)C(=O)O)[C@@H](C)O)[C@@H](C)CC)[C@@H](C)CC [A, reference compound] (HELM PEPTIDE1{H.[Aib].D.G.S.F.S.S.E.L.A.T.I.L.D.K.Q.A.A.R.D.F.I.A.W.L.I.Q.H.K.I.T.D}|PEPTIDE2{[O=C(O)CCCCCCCCCCCCCCCCC(=O)[*:2]].[gGlu]}$PEPTIDE1,PEPTIDE2,16:R3-2:R2$$$V2.0)	0.49 nM	C (<80% normalized stability)	B (>80% stability)	0.083 nM									
CC[C@H](C)[C@H](NC(=O)[C@H](Cc1ccccc1)NC(=O)[C@H](CC(=O)O)NC(=O)[C@H](CCCNC(=N)N)NC(=O)[C@H](C)NC(=O)[C@H](C)NC(=O)[C@H](CCCCNC(=O)CC[C@H](NC(=O)CCCCCCCCCCCCCCCCC(=O)O)C(=O)O)NC(=O)CNC(=O)[C@H](CC(=O)O)NC(=O)[C@H](CC(C)C)NC(=O)[C@@H](NC(=O)[C@@H](NC(=O)[C@H](C)NC(=O)[C@H](CC(C)C)NC(=O)[C@H](CCC(=O)O)NC(=O)[C@H](CO)NC(=O)[C@@H](NC(=O)[C@H](Cc1ccccc1)NC(=O)[C@H](CO)NC(=O)CNC(=O)[C@H](CCC(=O)O)NC(=O)C(C)(C)NC(=O)[C@@H](N)Cc1c[nH]cn1)[C@@H](C)O)[C@@H](C)O)[C@@H](C)CC)C(=O)N[C@@H](C)C(=O)N[C@@H](Cc1c[nH]c2ccccc12)C(=O)N[C@@H](CC(C)C)C(=O)N[C@H](C(=O)N[C@@H](CCC(=O)O)C(=O)N[C@@H](Cc1c[nH]cn1)C(=O)N[C@@H](CCCCN)C(=O)N[C@H](C(=O)N[C@H](C(=O)N[C@@H](CC(=O)O)C(=O)O)[C@@H](C)O)[C@@H](C)CC)[C@@H](C)CC [Compound 8] (HELM PEPTIDE1{H.[Aib].E.G.S.F.T.S.E.L.A.T.I.L.D.G.K.A.A.R.D.F.I.A.W.L.I.E.H.K.I.T.D}|PEPTIDE2{[O=C(O)CCCCCCCCCCCCCCCCC(=O)[*:2]].[gGlu]}$PEPTIDE1,PEPTIDE2,17:R3-2:R2$$$V2.0)					1.27 g	5.28 mM							
CC[C@H](C)[C@H](NC(=O)[C@H](CC(C)C)NC(=O)[C@H](Cc1c[nH]c2ccccc12)NC(=O)[C@H](C)NC(=O)[C@@H](NC(=O)[C@H](Cc1ccccc1)NC(=O)[C@H](CC(=O)O)NC(=O)[C@H](CCCNC(=N)N)NC(=O)[C@H](C)NC(=O)[C@H](C)NC(=O)[C@H](CCC(N)=O)NC(=O)[C@H](CCCCNC(=O)CC[C@H](NC(=O)CCCCCCCCCCCCCCCCC(=O)O)C(=O)O)NC(=O)[C@H](CC(=O)O)NC(=O)[C@H](CC(C)C)NC(=O)[C@@H](NC(=O)[C@@H](NC(=O)[C@H](C)NC(=O)[C@H](CC(C)C)NC(=O)[C@H](CCC(=O)O)NC(=O)[C@H](CO)NC(=O)[C@@H](NC(=O)[C@H](Cc1ccccc1)NC(=O)[C@@H](NC(=O)CNC(=O)[C@H](CCC(=O)O)NC(=O)C(C)(C)NC(=O)[C@@H](N)Cc1c[nH]cn1)[C@@H](C)O)[C@@H](C)O)[C@@H](C)O)[C@@H](C)CC)[C@@H](C)CC)C(=O)N[C@@H](C)C(=O)N[C@@H](Cc1c[nH]cn1)C(=O)N[C@@H](CCCCN)C(=O)N[C@H](C(=O)N[C@H](C(=O)N[C@@H](CC(=O)O)C(=O)O)[C@@H](C)O)[C@@H](C)CC [Compound 23] (HELM PEPTIDE1{H.[Aib].E.G.T.F.T.S.E.L.A.T.I.L.D.K.Q.A.A.R.D.F.I.A.W.L.I.A.H.K.I.T.D}|PEPTIDE2{[O=C(O)CCCCCCCCCCCCCCCCC(=O)[*:2]].[gGlu]}$PEPTIDE1,PEPTIDE2,16:R3-2:R2$$$V2.0)	0.13 nM	A (>90% normalised stability)	B (>80% stability)	0.24 nM			< 1000 µg/mL	< 1000 µg/mL	≥ 1000 µg/mL	≥ 1000 µg/mL	≥ 1000 µg/mL	≥ 1000 µg/mL	≥ 1000 µg/mL
CC[C@H](C)[C@H](NC(=O)[C@H](Cc1ccccc1)NC(=O)[C@H](CC(=O)O)NC(=O)[C@H](CCCNC(=N)N)NC(=O)[C@H](C)NC(=O)[C@H](C)NC(=O)[C@H](CCC(N)=O)NC(=O)[C@H](CCCCNC(=O)CC[C@H](NC(=O)CCCCCCCCCCCCCCCCC(=O)O)C(=O)O)NC(=O)[C@H](CC(=O)O)NC(=O)[C@H](CC(C)C)NC(=O)[C@@H](NC(=O)[C@@H](NC(=O)[C@H](C)NC(=O)[C@H](CC(C)C)NC(=O)[C@H](CCC(=O)O)NC(=O)[C@H](CO)NC(=O)[C@@H](NC(=O)[C@H](Cc1ccccc1)NC(=O)[C@H](CO)NC(=O)CNC(=O)[C@H](CCC(=O)O)NC(=O)C(C)(C)NC(=O)[C@@H](N)Cc1c[nH]cn1)[C@@H](C)O)[C@@H](C)O)[C@@H](C)CC)C(=O)N[C@@H](C)C(=O)N[C@@H](Cc1c[nH]c2ccccc12)C(=O)N[C@@H](CC(C)C)C(=O)N[C@H](C(=O)N[C@@H](CCCNC(=N)N)C(=O)N[C@@H](Cc1c[nH]cn1)C(=O)N[C@@H](CCCCN)C(=O)N[C@H](C(=O)N[C@H](C(=O)N[C@@H](CC(=O)O)C(=O)O)[C@@H](C)O)[C@@H](C)CC)[C@@H](C)CC [Compound 30] (HELM PEPTIDE1{H.[Aib].E.G.S.F.T.S.E.L.A.T.I.L.D.K.Q.A.A.R.D.F.I.A.W.L.I.R.H.K.I.T.D}|PEPTIDE2{[O=C(O)CCCCCCCCCCCCCCCCC(=O)[*:2]].[gGlu]}$PEPTIDE1,PEPTIDE2,16:R3-2:R2$$$V2.0)	0.31 nM		A (>90% normalised stability)	0.38 nM									
